In assay [1] the test system is phosphorylated AKT Ser473 (pAKT S473), mTORC2 activity, PC3 cells. The assay can be described thus: mTOR target engagement assay, immunofluorescent cell-based, pAKT S473 readout (mTORC2 activity). The procedure, abridged:
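After blocking, cells were stained overnight at 4 °C with anti-pAKT S473 antibody, then a fluorescent secondary; inhibition was read as reduced fluorescence intensity.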

Assay [2] relates to phosphorylated 4E-BP1 Thr37/46 (p4E-BP1 Thr37/46), mTORC1 activity, PC3 cells. The assay can be described thus: mTOR target engagement assay, immunofluorescent cell-based, p4E-BP1 Thr37/46 readout (mTORC1 activity). To be noted: read-out: p4E-BP1 Thr37/46 IC50. The procedure, abridged:
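Cell-based immunofluorescence in PC3 cells: serially diluted compounds (0.25% DMSO, 5% FBS) applied for ninety minutes at 37° C before fixation and overnight 4° C staining of p4E-BP1 Thr37/46. Untreated DMSO wells set maximal phosphorylation; IC50 obtained by logistic fitting.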

The mark [3] stands for this setting: Homo sapiens, PC-3, PC3 cells, compound treatment ninety minutes at 37° C.
The mark [4] stands for this setting: Homo sapiens, PC-3, Table 6-1, PC3 cells.
Setting [5] is: Homo sapiens, PC-3, Table 7-9 (no column head printed; column order as in the neighbouring tables), PC3 cells.
[6] abbreviates: Homo sapiens, PC-3, Table 3-1, PC3 cells.

The results in this text go back to US9227971B2, “Pyrazolo[1,5-a]pyrimidine compounds as mTOR inhibitors” (Merck Sharp & Dohme Corp., priority 2010, dated 2016).

pIC50: −log10 of the molar value. Like-named read-outs stand apart in the source and are kept apart here.

Turning to `CC(=O)c1c([C@@H]2C[C@H]3CC[C@@H](C2)N3C(=O)c2nnc[nH]2)nc2c(-c3cnc(C(C)(C)O)c(C)c3)cnn2c1N` [Compound 7.24, 1-(5-((1R,3s,5S)-8-(4H-1,2,4-triazole-3-carbonyl)-8-azabicyclo[3.2.1]octan-3-yl)-7-amino-3-(6-(2-hydroxypropan-2-yl)-5-methylpyridin-3-yl)pyrazolo[1,5-a]pyrimidin-6-yl)ethanone], the pIC50 in assay [1] (setting [3]) and in assay [2] (setting [3]) was 7.00 to 9.00 in each case.

As to `CC(=O)c1c([C@@H]2C[C@H]3CC[C@@H](C2)N3C=O)nc2c(-c3ccc(-c4ncc[nH]4)nc3)cnn2c1N` [Compound 6.15, (1R,3s,5S)-3-(3-(6-(1H-imidazol-2-yl)pyridin-3-yl)-6-acetyl-7-aminopyrazolo[1,5-a]pyrimidin-5-yl)-8-azabicyclo[3.2.1]octane-8-carbaldehyde], the pIC50 in assay [1] (setting [4]) and in assay [2] (setting [4]) was 7.00 to 9.00 each time.

Take `CC(=O)c1c([C@@H]2C[C@H]3CC[C@@H](C2)N3C(=O)c2nnc[nH]2)nc2c(-c3ccc(C(F)(F)F)nc3)cnn2c1N` [Compound 1.1.104, 1-(5-((1R,3s,5S)-8-(4H-1,2,4-triazole-3-carbonyl)-8-azabicyclo[3.2.1]octan-3-yl)-7-amino-3-(6-(trifluoromethyl)pyridin-3-yl)pyrazolo[1,5-a]pyrimidin-6-yl)ethanone]: the pIC50 in assay [1] (setting [3]) and in assay [2] (setting [3]) was 6.00 to 7.00 in each case.

In the case of `N#C/N=C(\N)N1[C@@H]2CC[C@H]1C[C@H](c1cc(N)n3ncc(-c4ccc(-c5ccccc5)nc4)c3n1)C2` [Compound 8.86], the pIC50 in assay [1] (Homo sapiens, PC-3, PC3 cells) is 5.00 to 6.00; in assay [2] (Homo sapiens, PC-3, PC3 cells), 5.00 to 6.00.

Take `CC(=O)c1c([C@@H]2C[C@H]3CC[C@@H](C2)N3C(=O)c2nnc[nH]2)nc2c(-c3ccc(C(O)CO)nc3)cnn2c1N` (stereo partly drawn) [Compound 7.52, 1-(5-((1R,3s,5S)-8-(4H-1,2,4-triazole-3-carbonyl)-8-azabicyclo[3.2.1]octan-3-yl)-7-amino-3-(6-(1,2-dihydroxyethyl)pyridin-3-yl)pyrazolo[1,5-a]pyrimidin-6-yl)ethanone]: the pIC50 in assay [1] (setting [5]) and in assay [2] (setting [5]) was 5.00 to 6.00 in each case.

For `Cc1ccc(-c2cnn3c(N)c(S(C)(=O)=O)c([C@@H]4C[C@H]5CC[C@@H](C4)N5C(=O)c4nnc[nH]4)nc23)cn1` [Compound 3.68, ((1R,3s,5S)-3-(7-amino-3-(6-methylpyridin-3-yl)-6-(methylsulfonyl)pyrazolo[1,5-a]pyrimidin-5-yl)-8-azabicyclo[3.2.1]octan-8-yl)(4H-1,2,4-triazol-3-yl)methanone], the pIC50 in assay [1] (Table 3-1, PC3 cells) was 6.00 to 7.00; in assay [2] (Table 3-1, PC3 cells), 6.00 to 7.00.

For the compound `CS(=O)(=O)c1c([C@@H]2C[C@H]3CC[C@@H](C2)N3C(=O)CO)nc2c(-c3ccc(-c4ccccc4)nc3)cnn2c1N` [Compound 3.1, 1-((1R,3s,5S)-3-(7-amino-6-(methylsulfonyl)-3-(6-phenylpyridin-3-yl)pyrazolo[1,5-a]pyrimidin-5-yl)-8-azabicyclo[3.2.1]octan-8-yl)-2-hydroxyethanone], the values for the pIC50 in assay [1] (setting [6]) and in assay [2] (setting [6]) were 7.00 to 9.00 and 6.00 to 7.00, respectively.

`CCOc1ccc(-c2ccc(-c3cnn4c(N)c(C(C)=O)c([C@@H]5C[C@H]6CC[C@@H](C5)N6C(=O)c5nnc[nH]5)nc34)cn2)cc1` [Compound 1.1.73, 1-(5-((1R,3s,5S)-8-(4H-1,2,4-triazole-3-carbonyl)-8-azabicyclo[3.2.1]octan-3-yl)-7-amino-3-(6-(4-ethoxyphenyl)pyridin-3-yl)pyrazolo[1,5-a]pyrimidin-6-yl)ethanone]: the pIC50 in assay [1] (setting [3]) and in assay [2] (setting [3]) was 7.00 to 9.00 each time.

For the compound `CS(=O)(=O)c1c([C@@H]2C[C@H]3CC[C@@H](C2)N3C(=O)c2nc(N)n[nH]2)nc2c(-c3ccc(-c4ccccc4)nc3)cnn2c1N` [Compound 3.98, (3-amino-1H-1,2,4-triazol-5-yl)((1R,3s,5S)-3-(7-amino-6-(methylsulfonyl)-3-(6-phenylpyridin-3-yl)pyrazolo[1,5-a]pyrimidin-5-yl)-8-azabicyclo[3.2.1]octan-8-yl)methanone], the pIC50 in assay [1] (setting [6]) and in assay [2] (setting [6]) was 7.00 to 9.00 in each case.

Take `CC(=O)c1c([C@@H]2C[C@H]3CC[C@@H](C2)N3C(=O)c2nnc(C)[nH]2)nc2c(-c3ccc(C(C)(C)O)nc3)cnn2c1N` [Compound 7.9, 1-(7-amino-3-(6-(2-hydroxypropan-2-yl)pyridin-3-yl)-5-((1R,3s,5S)-8-(5-methyl-4H-1,2,4-triazole-3-carbonyl)-8-azabicyclo[3.2.1]octan-3-yl)pyrazolo[1,5-a]pyrimidin-6-yl)ethanone]: the pIC50 in assay [1] (setting [3]) and in assay [2] (setting [3]) was 6.00 to 7.00 each time.

`CC(=O)c1c([C@@H]2C[C@H]3CC[C@@H](C2)N3C(=O)c2nnc[nH]2)nc2c(-c3ccc([C@@H](C)O)nc3)cnn2c1N` [Compound 7.14, 1-(5-((1R,3s,5S)-8-(4H-1,2,4-triazole-3-carbonyl)-8-azabicyclo[3.2.1]octan-3-yl)-7-amino-3-(6-((R)-1-hydroxyethyl)pyridin-3-yl)pyrazolo[1,5-a]pyrimidin-6-yl)ethanone]: the pIC50 in assay [1] (setting [3]) and in assay [2] (setting [3]) was 6.00 to 7.00 throughout.

For `CS(=O)(=O)c1c([C@@H]2C[C@H]3CC[C@@H](C2)N3C(=O)c2nnc[nH]2)nc2c(-c3ccc(-n4cccn4)nc3)cnn2c1N` [Compound 3.150, ((1R,3s,5S)-3-(3-(6-(1H-pyrazol-1-yl)pyridin-3-yl)-7-amino-6-(methylsulfonyl)pyrazolo[1,5-a]pyrimidin-5-yl)-8-azabicyclo[3.2.1]octan-8-yl)(4H-1,2,4-triazol-3-yl)methanone], the pIC50 in assay [1] (setting [6]) and in assay [2] (setting [6]) was 7.00 to 9.00 throughout.

`CC(=O)c1c([C@@H]2C[C@H]3CC[C@@H](C2)N3C(=O)c2nnc[nH]2)nc2c(-c3ccc(C#CC4CC4)nc3)cnn2c1N` [Compound 8.60, 1-(5-((1R,3s,5S)-8-(4H-1,2,4-triazole-3-carbonyl)-8-azabicyclo[3.2.1]octan-3-yl)-7-amino-3-(6-(cyclopropylethynyl)pyridin-3-yl)pyrazolo[1,5-a]pyrimidin-6-yl)ethanone]: the pIC50 was 6.00 to 7.00 in assay [1] (Homo sapiens, PC-3, PC3 cells) and 6.00 to 7.00 in assay [2] (Homo sapiens, PC-3, PC3 cells).

As to `CS(=O)(=O)c1c([C@@H]2C[C@H]3CC[C@@H](C2)N3C(=O)c2coc(=O)[nH]2)nc2c(-c3ccc(-c4ccccc4)nc3)cnn2c1N` [Compound 3.138, 4-((1R,3s,5S)-3-(7-amino-6-(methylsulfonyl)-3-(6-phenylpyridin-3-yl)pyrazolo[1,5-a]pyrimidin-5-yl)-8-azabicyclo[3.2.1]octane-8-carbonyl)oxazol-2(3H)-one], the pIC50 in assay [1] (setting [6]) and in assay [2] (setting [6]) was 6.00 to 7.00 throughout.

As for `CC(=O)c1c([C@@H]2C[C@H]3CC[C@@H](C2)N3C(=O)c2nnc(O)[nH]2)nc2c(-c3ccc(-c4ccccc4)nc3)cnn2c1N` [Compound 1.1.40, 1-(7-amino-5-((1R,3s,5S)-8-(5-hydroxy-4H-1,2,4-triazole-3-carbonyl)-8-azabicyclo[3.2.1]octan-3-yl)-3-(6-phenylpyridin-3-yl)pyrazolo[1,5-a]pyrimidin-6-yl)ethanone], the pIC50 in assay [1] (setting [3]) and in assay [2] (setting [3]) was 6.00 to 7.00 each time.
